# Test results as given in PubChem BioAssay (NCI).
# Several values for one entry are separate records, joined by “and”; a condition that tells them apart may be missing. Equal values may be shown once.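 Step 1: Grow cells in 96-well plates. Step 2: Expose to compound for 48 hours at 5 concentrations. Step 3: Interpolate endpoints linearly; if unreached, use highest concentration. GI50 marks 50% less growth. TGI denotes the concentration required for complete inhibition of growth.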
# Experiments:
# Test in all cases: DTP human tumour cell line panel, 48 h
# XF 498 CNS = system: XF 498 CNS
# UO-31 renal = system: UO-31 renal
# OVCAR-3 ovarian = system: OVCAR-3 ovarian
# HOP-18 NSCLC = system: HOP-18 NSCLC
# K-562 leukemia = system: K-562 leukemia
# M14 melanoma = system: M14 melanoma
# DMS 114 small cell lung = system: DMS 114 small cell lung
# LXFL 529 NSCLC = system: LXFL 529 NSCLC
# SK-MEL-28 melanoma = system: SK-MEL-28 melanoma
# MCF7 breast = system: MCF7 breast
Structure (SMILES),TGI (XF 498 CNS) [µM],TGI (UO-31 renal),TGI (OVCAR-3 ovarian),TGI (HOP-18 NSCLC) [µM],TGI (K-562 leukemia),TGI (M14 melanoma),TGI (DMS 114 small cell lung),TGI (LXFL 529 NSCLC) [µM],TGI (SK-MEL-28 melanoma) [µM],TGI (MCF7 breast),GI50 (MCF7 breast),GI50 (XF 498 CNS) [µM],GI50 (OVCAR-3 ovarian) [µM],GI50 (HOP-18 NSCLC) [µM],GI50 (K-562 leukemia),GI50 (DMS 114 small cell lung),GI50 (SK-MEL-28 melanoma),GI50 (UO-31 renal) [µM],GI50 (M14 melanoma) [µM]
CC1=CC(C)(c2c[nH]c3ccccc23)CC(C)(C)c2c1[nH]c1ccccc21 (stereo not given),72.1,27.3 µM,28.6 µM,> 100,53.9 µM,46.9 µM,36.5 µM,> 100,30.1,,,,,,,,,,
CC(C)c1ccc(C2NC(=S)NC3=C2c2ccccc2C3=O)cc1 (stereo not given),> 100,> 58.2 µM,> 56.7 µM,,> 60 µM,> 57 µM,58.8 µM,> 100,57.9,23.1 µM,,,,,,,,,
CCCCC(C)/C=C/C(=O)C1=C(O)/C(=C/C(=O)O)OC1=O (stereo not given),> 100,> 100 µM,> 100 µM,> 100,> 100 µM,> 100 µM,> 100 µM,> 100,> 100,,,,,,,,,,
O=C1/C(=C/c2ccc3c(c2)OCCO3)CCC/C1=C\c1ccc2c(c1)OCCO2,,> 100 µM,44.6 µM,80.2,,41.3 µM,,> 100,77.2,,,,,,,,,,
O=c1c2ccccc2[nH]c2c(O)ccc(O)c12,30.9,> 79.9 µM,36.1 µM,,56.3 µM,30.3 µM,42.5 µM,28.5,35.2,,,,,,,,,,
O=c1c2cc(Br)cc(Br)c2nc(CCCl)n1-c1ccc(O)c([N+](=O)[O-])c1,,33.9 µM,33.7 µM,30.4,61.9 µM,31.9 µM,36.3 µM,30.3,35.4,,,,,,,,,,
C[C@H]1C/C=C/[C@H]2[C@@H]3O[C@]3(C)[C@@H](C)[C@H]3[C@H](Cc4ccccc4)NC(=O)[C@]32OC(=O)O/C=C/[C@@](C)(O)C1=O,,0.0499 µM,,0.162,91.2 µM and 125 µM and > 250 µM,25.4 µM,9.99 µM and 20.2 µM and 33.3 µM,,,64.4 µM and 125 µM and 67.2 µM,0.0125 µM and 0.025 µM,< 0.025,0.025,< 0.0116,0.0125 µM and 0.025 µM,0.0706 µM and 0.025 µM,0.0204 µM and 0.047 µM,,
N#Cc1c(-c2ccccc2)cc(-c2ccc(N)cc2)[nH]c1=O,,> 100 µM,> 100 µM,> 100,> 100 µM,> 100 µM,> 100 µM,> 100,> 100,,,,,,,,,,
Cc1ccccc1NC(=O)/C=N/O,,> 100 µM,> 100 µM,> 100,> 100 µM,> 100 µM,> 100 µM,> 100,> 100,,,,,,,,,,
COC(=O)c1cccc2c3ccccc3c3ccccc3c12,,> 100 µM,56 µM,> 100,79.3 µM,> 100 µM,94.7 µM,85.2,> 100,,,,,,,,,,
CCOC(=O)C(=O)Nc1cc(Cl)c(Cl)cc1Cl,,> 100 µM,> 100 µM,,> 100 µM,> 100 µM,> 100 µM,> 100,> 100,,,,,,,,,,
c1ccc(CN2CCc3[nH]c4ccccc4c3C2)cc1,68.6,79.2 µM,> 74.7 µM,> 100,55.1 µM,33.1 µM,47.3 µM,48.6,32.8,31.9 µM,,,,,,,,,
COC(=O)CCC(=O)N1C/C(=C\c2ccccc2)C(=O)/C(=C/c2ccccc2)C1,19.2,3.97 µM,5.01 µM,6.85,> 100 µM,3.93 µM,3.56 µM,4.13,4.24,,,,,,,,,,
Cc1cccc(C)c1NC(=O)CCc1nnc2s/c(=C\c3ccc(N(C)C)cc3)c(=O)n12,> 100,> 100 µM,> 100 µM,,> 100 µM,> 100 µM,> 100 µM,> 100,> 100,,,,,,,,,,
CCCCCCCCCC[C@@H](O)[C@@H]1CC[C@@H]([C@@H]2CC[C@@H]([C@@H](O)CCCCCCCCCC[C@H](O)CC3=CC(C)OC3=O)O2)O1 (stereo not given in full),,5.24 µM and > 20 µM,3.34 µM and 22.3 µM,,> 100 µM,5.16 µM and 29.6 µM,11.2 µM,25.6,> 28.8,> 100 µM,3.52 µM,,1.47,,2.94 µM,,5.25 µM,2.42,5.47
CC1=C(C(=O)NCc2ccccc2)C(c2ccc(Cl)c(Cl)c2)C(C(=O)NCc2ccccc2)=C(C)N1,> 100,> 100 µM,> 100 µM,,> 100 µM,> 100 µM,> 100 µM,> 100,> 100,,,,,,,,,,
C[P+](C)(C)C,> 100,> 100 µM,> 100 µM,> 100,> 100 µM,> 100 µM,> 100 µM,> 100,> 100,,,,,,,,,,
CCc1cccc(C(C)C)c1NC(=O)CCl,> 100,> 100 µM,> 100 µM,,> 100 µM,> 100 µM,,> 100,> 100,,,,,,,,,,
CC1(C)CCCC2(C)C3C(O)CC2(C)C(O)C31 (stereo not given),> 100,> 100 µM,> 100 µM,> 100,> 100 µM,> 100 µM,> 100 µM,> 100,> 100,,,,,,,,,,
Cn1c(=O)nc2n(-c3ccc(Cl)cc3)c(-c3ccccc3)c(-c3ccccc3)nc-2c1=O,42.2,60.7 µM,82.1 µM,> 100,> 100 µM,45.5 µM,> 100 µM,> 100,86.2,,,,,,,,,,
CCCCCCCCOCC(O)CO (stereo not given),> 100,> 100 µM,> 100 µM,> 100,> 100 µM,> 100 µM,> 100 µM,> 100,> 100,,,,,,,,,,
